Measurements: patent US6737383B1, “Herbicidal oxadiazolidines” (priority 1999, dated 2004)

What was measured:
[1] = test system: duck salad; experiment: Test B flood test duck salad; assay type: in vivo, Heteranthera limosa; settings: for Plant response rating, Ducksalad (0 to 10 scale, 0 is no effect, 10 is complete control) / Ducksalad plant response rating (0 to 10 scale, 0 is no effect, 10 is complete control): visual evaluation after twelve to sixteen days; for Ducksalad plant response rating (0 to 10 scale, 0 is no effect, 10 is complete control): under heading Pre-emergence
How it was run: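 Each value is a visual injury score relative to controls, with 10 meaning complete control and 0 no effect. Evaluation took place twelve to sixteen days after the 2-leaf-stage plants were treated and kept in the greenhouse.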

[2] = test system: sugar beet; experiment: Test B pre/postemergence sugar beet; assay type: in vivo, Beta vulgaris
How it was run: (§1)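 Herbicidal effect was estimated by eye on a ten-point control scale after plants spent twelve to sixteen days in a greenhouse following soil or foliar treatment. Foliar sprays targeted plants at one to four leaves; all doses were formulated in a non-phytotoxic solvent with surfactant.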

[3] = test system: corn; experiment: Test B pre/postemergence corn; assay type: in vivo, Zea mays
How it was run: as §1

[4] = test system: rape; experiment: Test B pre/postemergence rape; assay type: in vivo, Brassica napus
How it was run: as §1

[5] = Rate 62 g/ha, flood test species, Pre-emergence
[6] = Rate 125 g/ha, flood test species
[7] = Rate 250 g/ha, Pre-emergence (flood test species), scale 0 to 10, 0 is no effect, 10 is complete control
[8] = Rate 500 g/ha, Pre-emergence section of Table B, 0 to 10 scale (0 no effect, 10 complete control)
[9] = Postemergence, Rate 62 g/ha, scale of 0 to 10, 0 is no effect, 10 is complete control
[10] = Postemergence, Rate 500 g/ha, scale of 0 to 10 where 0 is no effect and 10 is complete control
[11] = Preemergence, Rate 62 g/ha, scale 0 to 10 (0 no effect, 10 complete control)
[12] = Preemergence, Rate 125 g/ha, scale 0 to 10, 0 is no effect, 10 is complete control
[13] = Preemergence, Rate 500 g/ha, scale of 0 to 10 where 0 is no effect and 10 is complete control
[14] = Rate 250 g/ha, Postemergence, scale of 0 to 10 where 0 is no effect and 10 is complete control
[15] = Postemergence, Rate 125 g/ha, scale 0 to 10, 0 is no effect, 10 is complete control
[16] = Postemergence, Rate 250 g/ha, scale 0 to 10
[17] = Preemergence, Rate 62 g/ha, scale of 0 to 10 where 0 is no effect and 10 is complete control
[18] = Preemergence, Rate 125 g/ha, scale of 0 to 10 where 0 is no effect and 10 is complete control
[19] = Preemergence, Rate 250 g/ha, scale 0 to 10, 0 is no effect, 10 is complete control
[20] = Preemergence, Rate 500 g/ha, scale 0 to 10, 0 is no effect, 10 is complete control
[21] = Rate 62 g/ha, Postemergence, scale 0 to 10, 0 no effect, 10 complete control
[22] = Rate 125 g/ha, Postemergence, scale 0 to 10, 0 is no effect, 10 is complete control
[23] = Postemergence, Rate 62 g/ha, scale 0 to 10, 0 is no effect, 10 is complete control
[24] = Postemergence, Rate 125 g/ha, scale of 0 to 10 where 0 is no effect and 10 is complete control
[25] = Postemergence, Rate 250 g/ha, scale of 0 to 10, 0 is no effect, 10 is complete control
[26] = Preemergence, Rate 250 g/ha, scale 0 to 10 (0 no effect, 10 complete control)

CCCCn1c(=O)on(C(=O)N(c2ccccc2)C(C)C)c1=O [Compound 556]
Plant response rating, Ducksalad (0 to 10 scale, 0 is no effect, 10 is complete control) [1, 5]: 0
Ducksalad plant response rating (0 to 10 scale, 0 is no effect, 10 is complete control) [1, 6]: 0
Ducksalad plant response rating [1, 7]: 0
Ducksalad plant response rating [1, 8]: 0
Sugarbeets plant response rating [2, 9]: 0
Plant response rating, Sugarbeets [2, 10]: 0
Sugarbeets plant response rating [2, 11]: 0
Sugarbeets plant response rating [2, 12]: 0
Sugarbeets plant response rating (0 to 10 scale) ([2]; Preemergence, Rate 250 g/ha): 0
Sugarbeets plant response rating [2, 13]: 0
Plant response rating, Sugarbeets [2, 14]: 0
Corn plant response rating [3, 9]: 0
Corn plant response rating [3, 15]: 0
Plant response rating, Corn [3, 10]: 0
Corn plant response rating [3, 11]: 0
Corn plant response rating [3, 12]: 0
Corn plant response rating (0 to 10 scale) ([3]; Preemergence, Rate 250 g/ha): 0
Corn plant response rating [3, 13]: 0
Plant response rating, Corn [3, 14]: 0
Rape plant response rating [4, 9]: 0
Rape plant response rating [4, 15]: 0
Plant response rating, Rape [4, 10]: 2
Rape plant response rating [4, 11]: 0
Rape plant response rating [4, 12]: 3
Rape plant response rating (0 to 10 scale) ([4]; Preemergence, Rate 250 g/ha): 3
Rape plant response rating [4, 13]: 8
Plant response rating, Rape [4, 14]: 0

CC[Si](C)(C)Cn1c(=O)on(C(=O)N(c2ccc(F)cc2)C(C)C)c1=O [Compound 459]
Plant response rating, Ducksalad (0 to 10 scale, 0 is no effect, 10 is complete control) [1, 5]: 0
Ducksalad plant response rating (0 to 10 scale, 0 is no effect, 10 is complete control) [1, 6]: 0
Ducksalad plant response rating [1, 7]: 0
Ducksalad plant response rating ([1]; Rate 500 g/ha, Pre-emergence, flood test species, scale 0 to 10 (0 no effect, 10 complete control)): 0
Sugarbeets plant response rating [2, 16]: 0
Plant response rating, Sugarbeets [2, 17]: 0
Plant response rating, Sugarbeets [2, 18]: 0
Sugarbeets plant response rating [2, 19]: 0
Sugarbeets plant response rating [2, 20]: 0
Sugarbeets plant response rating [2, 21]: 0
Sugarbeets plant response rating [2, 22]: 0
Corn plant response rating [3, 16]: 0
Corn plant response rating [3, 10]: 0
Plant response rating, Corn [3, 17]: 0
Plant response rating, Corn [3, 18]: 0
Corn plant response rating [3, 19]: 0
Corn plant response rating [3, 20]: 0
Corn plant response rating [3, 21]: 0
Corn plant response rating [3, 22]: 0
Rape plant response rating [4, 16]: 0
Plant response rating, Rape [4, 17]: 0
Plant response rating, Rape [4, 18]: 0
Rape plant response rating [4, 19]: 0
Rape plant response rating [4, 20]: 0
Rape plant response rating [4, 21]: 0
Rape plant response rating [4, 22]: 0

CCOC(Cn1c(=O)on(C(=O)N(c2ccc(Cl)cc2)C(C)C)c1=O)OCC [Compound 633]
Plant response rating, Ducksalad (0 to 10 scale, 0 is no effect, 10 is complete control) [1, 5]: 0
Ducksalad plant response rating (0 to 10 scale, 0 is no effect, 10 is complete control) [1, 6]: 0
Ducksalad plant response rating [1, 7]: 0
Ducksalad plant response rating [1, 8]: 0
Plant response rating, Sugarbeets [2, 23]: 0
Plant response rating, Sugarbeets [2, 24]: 0
Sugarbeets plant response rating [2, 25]: 0
Sugarbeets plant response rating [2, 11]: 0
Sugarbeets plant response rating [2, 18]: 0
Plant response rating, Sugarbeets [2, 26]: 0
Plant response rating, Sugarbeets [2, 13]: 0
Plant response rating, Corn [3, 23]: 0
Plant response rating, Corn [3, 24]: 0
Corn plant response rating [3, 25]: 0
Plant response rating, Corn [3, 10]: 0
Corn plant response rating [3, 11]: 0
Corn plant response rating [3, 18]: 0
Plant response rating, Corn [3, 26]: 0
Plant response rating, Corn [3, 13]: 2
Plant response rating, Rape [4, 23]: 0
Plant response rating, Rape [4, 24]: 0
Rape plant response rating [4, 25]: 0
Plant response rating, Rape [4, 10]: 0
Rape plant response rating [4, 11]: 0
Rape plant response rating [4, 18]: 0
Plant response rating, Rape [4, 26]: 1
Plant response rating, Rape [4, 13]: 4

CCOC(=O)CC(C(=O)OCC)n1c(=O)on(C(=O)N(c2ccc(F)cc2)C(C)C)c1=O (stereo not shown) [Compound 615]
Plant response rating, Ducksalad (0 to 10 scale, 0 is no effect, 10 is complete control) [1, 5]: 0
Ducksalad plant response rating (0 to 10 scale, 0 is no effect, 10 is complete control) [1, 6]: 0
Ducksalad plant response rating [1, 7]: 0
Ducksalad plant response rating [1, 8]: 0
Plant response rating, Sugarbeets [2, 23]: 0
Plant response rating, Sugarbeets [2, 24]: 0
Sugarbeets plant response rating [2, 25]: 0
Plant response rating, Sugarbeets [2, 10]: 0
Sugarbeets plant response rating [2, 11]: 0
Sugarbeets plant response rating [2, 18]: 0
Plant response rating, Sugarbeets [2, 26]: 0
Plant response rating, Sugarbeets [2, 13]: 6
Plant response rating, Corn [3, 23]: 0
Plant response rating, Corn [3, 24]: 0
Corn plant response rating [3, 25]: 0
Plant response rating, Corn [3, 10]: 0
Corn plant response rating [3, 11]: 0
Corn plant response rating [3, 18]: 0
Plant response rating, Corn [3, 26]: 0
Plant response rating, Corn [3, 13]: 0
Plant response rating, Rape [4, 23]: 0
Plant response rating, Rape [4, 24]: 0
Rape plant response rating [4, 25]: 0
Plant response rating, Rape [4, 10]: 0
Rape plant response rating [4, 11]: 0
Rape plant response rating [4, 18]: 0
Plant response rating, Rape [4, 26]: 0
Plant response rating, Rape [4, 13]: 0

CC(C)N(C(=O)n1oc(=O)n(CCC#N)c1=O)c1ccccc1 [Compound 436]
Ducksalad plant response rating ([1]; Postemergence block (flood test species), Rate 250 g/ha, scale 0 to 10): 0
Ducksalad plant response rating ([1]; Postemergence section (flood test species), Rate 500 g/ha, scale of 0 to 10 where 0 is no effect and 10 is complete control): 0
Ducksalad plant response rating ([1]; Rate 62 g/ha, Postemergence (flood test), scale 0 to 10, 0 no effect, 10 complete control): 0
Ducksalad plant response rating ([1]; Rate 125 g/ha, Postemergence section (flood test species), scale 0 to 10, 0 is no effect, 10 is complete control): 0
Sugarbeets plant response rating [2, 16]: 0
Sugarbeets plant response rating [2, 10]: 0
Plant response rating, Sugarbeets [2, 11]: 0
Plant response rating, Sugarbeets [2, 18]: 0
Sugarbeets plant response rating [2, 19]: 0
Sugarbeets plant response rating [2, 20]: 5
Sugarbeets plant response rating [2, 21]: 0
Sugarbeets plant response rating [2, 22]: 0
Corn plant response rating [3, 16]: 0
Corn plant response rating [3, 10]: 5
Plant response rating, Corn [3, 11]: 0
Plant response rating, Corn [3, 18]: 0
Corn plant response rating [3, 19]: 0
Corn plant response rating [3, 20]: 9
Corn plant response rating [3, 21]: 0
Corn plant response rating [3, 22]: 0
Rape plant response rating [4, 16]: 0
Rape plant response rating [4, 10]: 4
Plant response rating, Rape [4, 11]: 0
Plant response rating, Rape [4, 18]: 0
Rape plant response rating [4, 19]: 0
Rape plant response rating [4, 20]: 10
Rape plant response rating [4, 21]: 0
Rape plant response rating [4, 22]: 0
